Some results are limits rather than exact numbers.

As usually defined, the melting point is the temperature, or range, at which the solid turns liquid. `COC(=O)c1ccccc1NC1C=CC(=O)O1` (stereo unspecified): the melting point is 172 to 173 °C.
The value for `CSc1nn(-c2c(Cl)cc(C(F)(F)F)cc2Cl)c(C)c1C(=O)c1cccc(C)c1` was 103 to 104 °C; that for `c1cc(OC2CN3CCC2CC3)no1` (stereo unspecified) was 80 to 81 °C.
`OCCCc1cn(-c2ccc(C(F)(F)F)cn2)nc1C1CCCCC1` registered a melting point of 106 to 107 °C.
To `O=Cc1ccc(-c2ccc(OCc3ccccc3)cc2)cc1` belongs 122 to 123 °C; to `O=C1c2ccccc2C(=O)N1Cc1cnc(Cl)s1`, 108 to 109 °C.
To `Cc1nc(N2CCN(Cc3ccc(OC(F)(F)F)cc3)C2=O)sc1C(=O)NCCc1cccnc1` belongs 172 to 173 °C; to `Cc1ccc(Nc2nc(-n3nc(C)cc3C)nc3ccccc23)cc1`, 210 to 216 °C; to `COc1cccc(CO)c1OCc1ccccc1`, 58 to 60 °C.
The value for `CNC(=O)[C@@H]1C[C@H](SCc2ccc(OC)cc2)CN1` was 53 to 54 °C; that for `CC(C)(C)C(Cl)=NNc1ccc(Cl)cc1` was 42 to 43 °C.
In turn, `O=C(O)CS(=O)CCCCCNS(=O)(=O)c1ccc(Cl)cc1` (stereo unspecified) showed a melting point of 91 to 92 °C.
`CC(C)OCc1cc2ccccc2oc1=Nc1ccccc1` displayed a melting point of 107 to 108 °C.
The value for `CC(C)(C)OCC(NC(=O)c1ccc2c(Cl)cnc(Cl)c2c1)C(=O)OC(C)(C)C` (racemic) was 116 to 117 °C; that for `NC(N)=Nc1nc(N2CCOCC2)nc2ccccc12` was 197 °C.
The value for `COc1ccc2c(=O)c(-c3nnnn3C)cn(C)c2c1` was 270 to 273 °C.
The value for `Cc1c(-c2ccc(Cl)cc2)nc2ccc(C(=O)NC(Cc3ccc(OCc4ccccc4)cc3)C(=O)O)cn12` (stereo unspecified) was 244 to 245 °C; that for `CN(C(=O)On1cccn1)c1ccccc1` was 63 to 67 °C.
Consider `CN(C)C(=S)C1CC(C)(C)Oc2ccc([N+](=O)[O-])cc21` (stereo unspecified), for which the melting point lay within 158 to 160 °C.
In turn, `O=C(Nc1ccccc1N1CCOCC1)c1cccc2c1C(=O)c1ccccc1-2` came in with a melting point of 154 to 156 °C.
For the molecule `COc1cccc(OC)c1CC(=O)N1C[C@@H]2C(=O)CCC(c3ccccc3)(c3ccccc3)[C@@H]2C1` (racemic), the melting point was found to be 224 °C.
To `CC1(C)C=C(c2ccncc2O)c2ccccc2O1` belongs 228 to 230 °C.
Molecule `CSC(=N)NS(=O)(=O)CCl` registered a melting point of 60 to 62 °C.
The value for `Cc1cc2c(cc1C)C(C(=O)O)SCC2=O` (single isomer, unassigned; (-)) was 177 to 178 °C; that for `COc1ccc(CN(CC(=O)OC(C)(C)C)S(=O)(=O)c2ccc3c(Cl)cnc(Cl)c3c2)cc1` was 117 to 118 °C; that for `CC(=O)OC1CSC(Oc2cncc(I)c2)C(OC(C)=O)C1OC(C)=O` (stereo unspecified) was 148 to 150 °C.
`COc1ccc(-c2[nH]nc3c2C(=O)c2c(NC(=O)Nc4ccncc4)cccc2-3)cc1` came in with a melting point of more than 300 °C.
The value for `CCN(CC)C(=O)c1nc(CCl)n(-c2ccc(Cl)cc2C(=O)c2ccccc2)n1` was 118 to 119 °C.
To `O=c1c2ccc(Cl)cc2[nH]c2c(O)nn(Cc3ccccc3F)c(=O)c12` belongs 215 °C.
To `CN1CCN(c2cc(N)ccc2Br)CC1` belongs 120 to 122 °C; to `CCCN(c1nc(-c2ccc(OC)cc2Cl)c(C)s1)c1cc(C(C)=O)ccc1OC`, 50 °C.
Take `COc1ccc(CNc2nnc(N3CCC(O)C3)c3ccc(Cl)cc23)cc1Cl` (stereo unspecified): the melting point lay in the range of 191 to 193 °C.
The value for `CCOC(=O)NC(=O)n1sc(OCC)nc1=O` was 119 °C; that for `CCCc1c(OCCCCCOc2ccccc2CCCCC(=O)O)ccc2c1OCCC2=O` was 75 to 76 °C; that for `CC(C)(C)OC(=O)NCC(=O)Nn1cccc1C(=O)c1ccccc1F` was 114 to 116 °C.
The value for `CS(=O)(=O)c1ccc(C(=O)c2cnoc2C2CC2)c(C(F)(F)F)c1S(C)(=O)=O` was 191 to 193 °C; that for `CCOC(=O)C=C(C)NC(=O)C(C)(C)CCl` was 76 to 77.5 °C; that for `C#CCCN1CCC(O)(c2ccc(Cl)cc2)CC1` was 98 to 100 °C.
`Cc1ccc(C(=O)c2sc(Nc3ccc(S(N)(=O)=O)cc3)nc2N)c(C)c1` returned a melting point of 242 to 244 °C.
On to `CCN1C(=O)C(C)(C)C(=O)N(C)c2cc(CN(CCn3ccc4oc(C)cc4c3=O)Cc3cnccc3Cl)ccc21`, for which the melting point is 114 to 118 °C.
The value for `CN(C1CN(C(=O)Nc2ccc(C(F)(F)F)cc2)N=C1c1ccc(Cl)cc1)S(C)(=O)=O` (stereo unspecified) was 105 to 112 °C.
To `FC(F)(F)C(Cc1ccccc1)(C(F)(F)F)C(F)(F)F` belongs 32 to 33 °C; to `CCC1C(=O)N(CCCCN2CCN(c3ccccn3)CC2)c2cc(F)ccc21` (stereo unspecified), 137 to 139 °C; to `N#Cc1ccc2cc3c4c(cccc4c2c1)C(=O)OC3=O`, more than 320 °C.
To `CCOc1cc2c(cc1OCC)C(C(C#N)SCCC(=O)O)=NCC2` (stereo unspecified) belongs 106 to 108 °C; to `CC(=O)NC1CCCCC1Sc1ccccc1` (stereo unspecified), 132 to 133 °C.
`CCOC(=O)C(=C(C)N)c1nc(N)c([N+](=O)[O-])nc1Cl` registered a melting point of 162 to 163 °C.
To `CC/C(=C(\c1ccc(/C=C/C(=O)O)cc1)c1ccc(OP(=O)(O)O)cc1)c1ccccc1` belongs 181 to 183 °C.
The molecule `CCCCOC(=O)C=C(C)C=CC=C(C)C=Cc1c(C)c(C)c(OC)c(C)c1C` returned a melting point of 230 to 233 °C.
To `CC(Cc1ccc(C(=O)C(C)(C)O)cc1)C(=O)O` (stereo unspecified) belongs 57 °C; to `NNc1ccc2c(=O)[nH]ccc2c1`, 270 °C.
As for `COC(=O)COc1ccc(C(C)CNS(=O)(=O)c2ccccc2)cc1F` (stereo unspecified), the melting point was 112 to 113 °C.
The value for `C=CCNc1c([N+](=O)[O-])cc(C(=O)OC)c(Nc2ccc(I)cc2F)c1F` was 153 to 154 °C.
In the case of `N#CCc1ccc(Cl)nc1`, the melting point worked out at 80 °C.
The value for `O=C(CN1CCN(C(=O)CCCCCS)CC1)Nc1nc2ccccc2s1` was 89 to 92 °C; that for `Oc1nc2cc(F)ccc2n2cnnc12` was more than 300 °C; that for `COc1ccc(OC)c(NC(=O)c2cc(OC)ccc2OC)c1` was 121 to 123 °C.
`Cc1nnc(-c2cc3c(OC[C@@H](O)CN4CCC(c5cccc6ccccc56)CC4)cccc3[nH]2)o1` registered a melting point of 203 to 205 °C.
To `N#Cc1ccc(OCCc2c[nH]cn2)cc1` belongs 181 to 183 °C.
The molecule `CCn1c(C(C)C)cc(-c2ccc(F)cc2)c1-c1ccccc1` gave a melting point of 110 °C.
For `Cc1cccc(NC(=O)C2=C(O)c3ccc4ccccc4c3S(=O)(=O)N2C)n1`, the melting point was 221 to 223 °C.
In the case of `Cc1ccc(C)c(-c2c(C)ccc(C)c2O)c1O`, the melting point was 110 to 113 °C.
To `CNC(=O)[C@@H]1C=CCN1S(=O)(=O)c1ccc(Cl)c(COc2cccc3c(-n4ccnc4)cc(C)nc23)c1Cl` belongs 132 °C.
The value for `Nc1ccc2c(c1)OCCNC2=O` was 151 to 152 °C; that for `C=CCOc1ccc(-c2nc3ccccc3o2)cc1` was 95 to 96 °C.
On to `COc1cc2c(Nc3ccc(Oc4ccccc4)cc3)c(C#N)cnc2cc1OCCN1CCC(N2CCCCC2)CC1`, for which the melting point is 141 °C.
Molecule `C=Cc1ccc(CSCCO)cc1` registered a melting point of 44 to 45.5 °C.
The value for `O=Cc1c[nH]c(-c2cccs2)c1` was 198 to 199 °C; that for `Fc1cc(Nc2ccc(Oc3ccccc3)cc2)ccn1` was 149 °C.
To `Cc1cccc(C(N)=O)c1SSc1c(C)cccc1C(N)=O` belongs 189 to 190 °C.
In turn, `CC(C)c1ncc2cc(Cl)nc(Cl)n12` showed a melting point of 90 to 93 °C.
In the case of `CC(C)N(Cc1nc(-c2ncn3c2CN(C)C(=O)c2ccccc2-3)no1)C(C)C`, the melting point fell in the range of 117 to 119 °C.
The value for `COc1cccc(CC[C@H]2CN(Cc3ccccc3)CCN2Cc2ccccc2)c1` was 73 to 75 °C; that for `CC(C)n1cc(-c2ccc(Oc3ccccc3)c(CO)c2)c2c(Cl)ncnc21` was 157 to 159 °C.
To `CCc1c(C(=O)OC(C)C)ncc2[nH]c3ccc4sc(NC(C)=O)nc4c3c12` belongs 208 to 210 °C.
On to `COc1ccc(N2CCN(C)CC2)c2c1CCC(C(=O)Nc1ccc(N3CCOCC3)cc1)C2` (stereo unspecified), for which the melting point was in the range of 230 to 232 °C.
`CC(O)c1nccc2c1CCCC2` (stereo unspecified) registered a melting point of 60 to 61 °C.
To `CCCC(=O)c1ccc2[nH]cc3c2c1CC(N(CCC)CCC)C3` (stereo unspecified) belongs 151 to 153 °C; to `O=C(O)/C=C/c1ccc(N2CCCC2)cc1`, 265 °C.
Turning to `Cc1cccc(-c2nc(NC3CCCCC3)c3ccccc3n2)n1`, the melting point is 253 to 255 °C.
The molecule `C[C@@H](n1cnc2ccc(Br)cc2c1=O)[C@](O)(Cn1cncn1)c1ccc(F)cc1F` registered a melting point of 182 to 183 °C.
To `CCC(Oc1ccccc1Br)C(=O)OC1CC(O)C=C2C=CC(C)C(CCC3CC(O)CC(=O)O3)C21` (mixture of isomers) belongs 160 to 162 °C; to `C=CCc1cc(CNC)ccc1C#CC1(O)CN2CCC1CC2` (stereo unspecified), 80 °C.
To `CC(C)(C)c1ccc(OC(=O)n2c3c(c(=O)n(C4CCCCO4)c2=O)CCC3)cc1` (stereo unspecified) belongs 135 °C; to `COc1ccc(C2=C(/C=C/C(=O)O)CCc3cc(OC)ccc32)cc1`, 222 to 224 °C.
The value for `CCOC(=O)c1cc2cc(F)c(F)cc2nc1Cl` was 108 °C; that for `Oc1ccccc1CNNCc1ccccc1O` was 315 to 316 °C.
The molecule `CCc1ccc(S(=O)(=O)Nc2ccccc2/C=C/c2ccncc2)cc1` displayed a melting point of 232 to 234 °C.
Molecule `Cc1c(CNCC(C)(C)O)[nH]c2c(C)c(NC(=O)c3ccc(OC[C@@H]4CCCO4)cc3F)ccc12` came in with a melting point of 151 to 152 °C.
For the molecule `C=Cc1cc2cccnc2c(-c2cccc([N+](=O)[O-])c2)n1`, the melting point was in the range of 145 to 151 °C.
Turning to `COCc1nc2cnc3ccccc3c2n1CC(C)C`, the melting point was 96 to 99 °C.

These data come from a melting point compilation (Tetko et al.; mined from patent text by program, amines drawn as free bases though some values may be those of a salt).
